Values quoted from earlier work, collected in PubChem BioAssay AID1259409 (Chemical Carcinogenesis Research Information System (CCRIS), 2018).

Tested on: rodent chemically induced tumor inhibition, incidence and multiplicity
Assay: CCRIS tumor inhibitor studies
Conditions: Route [Inhibitor]: ORAL, Promoter: NONE USED

CC1=C(/C=C/C(C)=C/C=C/C(C)=C/C(=O)NCCO)C(C)(C)CCC1
tumour outcome (control, treated, inhibition, significance) (Carcinogen: N-NITROSOBIS(2-OXYPROPYL)AMINE, 60599-38-4, Dose [Inhibitor]: 0.05, 0.1 OR 0.2 MM/KG DIET FOR 32 WK STARTING 1 WK AFTER THE CARCINOGEN DOSE (STUDY DURATION: 33 WK), Species: HAMSTER, Strain/Sex: SYRIAN/FEMALE, Target Tissue: Type of Lesion: PANCREAS: CARCINOMA IN SITU, Dose [Carcinogen]: 40 MG/KG, ONCE, ONE WK PRIOR TO START OF AGENT TREATMENT): 1/10 (10%), 11/29 (38%), -280%, not significant
tumour outcome (control, treated, inhibition, significance) (Carcinogen: N-NITROSOBIS(2-OXYPROPYL)AMINE, 60599-38-4, Dose [Inhibitor]: 0.05, 0.1 OR 0.2 MM/KG DIET FOR 32 WK STARTING 1 WK AFTER THE CARCINOGEN DOSE (STUDY DURATION: 33 WK), Species: HAMSTER, Strain/Sex: SYRIAN/FEMALE, Target Tissue: Type of Lesion: PANCREAS: INTRADUCTAL CARCINOMA, Dose [Carcinogen]: 40 MG/KG, ONCE, ONE WK PRIOR TO START OF AGENT TREATMENT): 2/10 (20%), 6/29 (21%), -5%, not significant
tumour outcome (control, treated, inhibition, significance) (Carcinogen: N-NITROSOBIS(2-OXYPROPYL)AMINE, 60599-38-4, Dose [Inhibitor]: 0.05, 0.1 OR 0.2 MM/KG DIET FOR 32 WK STARTING 1 WK AFTER THE CARCINOGEN DOSE (STUDY DURATION: 33 WK), Species: HAMSTER, Strain/Sex: SYRIAN/MALE, Target Tissue: Type of Lesion: PANCREAS: ADENOCARCINOMA, Dose [Carcinogen]: 40 MG/KG, ONCE, ONE WK PRIOR TO START OF AGENT TREATMENT): 1/12 (8%), 4/29 (14%), -75%, not significant
tumour outcome (control, treated, inhibition, significance) (Carcinogen: N-NITROSOBIS(2-OXYPROPYL)AMINE, 60599-38-4, Dose [Inhibitor]: 0.05, 0.1 OR 0.2 MM/KG DIET FOR 32 WK STARTING 1 WK AFTER THE CARCINOGEN DOSE (STUDY DURATION: 33 WK), Species: HAMSTER, Strain/Sex: SYRIAN/MALE, Target Tissue: Type of Lesion: PANCREAS: CARCINOMA IN SITU, Dose [Carcinogen]: 40 MG/KG, ONCE, ONE WK PRIOR TO START OF AGENT TREATMENT): 3/12 (25%), 5/29 (17%), 32%, not significant
tumour outcome (control, treated, inhibition, significance) (Carcinogen: N-NITROSOBIS(2-OXYPROPYL)AMINE, 60599-38-4, Dose [Inhibitor]: 0.05, 0.1 OR 0.2 MM/KG DIET FOR 32 WK STARTING 1 WK AFTER THE CARCINOGEN DOSE (STUDY DURATION: 33 WK), Species: HAMSTER, Strain/Sex: SYRIAN/MALE, Target Tissue: Type of Lesion: PANCREAS: INTRADUCTAL CARCINOMA, Dose [Carcinogen]: 40 MG/KG, ONCE, ONE WK PRIOR TO START OF AGENT TREATMENT): 2/12 (17%), 0/29 (0%), 100%, not significant
tumour outcome (control, treated, inhibition, significance) (Carcinogen: N-NITROSOBIS(2-OXYPROPYL)AMINE, 60599-38-4, Dose [Inhibitor]: 0.05, 0.1 OR 0.2 MM/KG DIET FOR 32 WK STARTING 1 WK AFTER THE CARCINOGEN DOSE (STUDY DURATION: 33 WK), Species: HAMSTER, Strain/Sex: SYRIAN/MALE, Target Tissue: Type of Lesion: PANCREAS: MICROCARCINOMA, Dose [Carcinogen]: 40 MG/KG, ONCE, ONE WK PRIOR TO START OF AGENT TREATMENT): 3/12 (25%), 4/29 (14%), 44%, not significant
tumour outcome (control, treated, inhibition, significance) (Carcinogen: NONE USED, Dose [Inhibitor]: 687 MG/KG DIET DAILY FOR 54 WK (STUDY DURATION: 54 WK), Species: RAT, Strain/Sex: ACI/SEGHAPBR/MALE, Target Tissue: Type of Lesion: ADRENAL GLAND: TUMOR): 15/43 (35%), 22/44 (50%), -43%, not significant
tumour outcome (control, treated, inhibition, significance) (Carcinogen: NONE USED, Dose [Inhibitor]: 687 MG/KG DIET DAILY FOR 54 WK (STUDY DURATION: 54 WK), Species: RAT, Strain/Sex: ACI/SEGHAPBR/MALE, Target Tissue: Type of Lesion: PANCREAS: ISLET CELL ADENOMA): 1/40 (3%), 8/44 (18%), -500%, p<0.05
tumour outcome (control, treated, inhibition, significance) (Carcinogen: NONE USED, Dose [Inhibitor]: 687 MG/KG DIET DAILY FOR 54 WK (STUDY DURATION: 54 WK), Species: RAT, Strain/Sex: ACI/SEGHAPBR/MALE, Target Tissue: Type of Lesion: PITUITARY GLAND: ADENOMA, CARCINOMA): 20/39 (51%), 19/41 (46%), 10%, not significant
tumour outcome (control, treated, inhibition, significance) (Carcinogen: NONE USED, Dose [Inhibitor]: 687 MG/KG DIET DAILY FOR 54 WK (STUDY DURATION: 54 WK), Species: RAT, Strain/Sex: ACI/SEGHAPBR/MALE, Target Tissue: Type of Lesion: PROSTATE GLAND: ADENOMA, CARCINOMA): 19/44 (43%), 12/43 (28%), 35%, not significant
tumour outcome (control, treated, inhibition, significance) (Carcinogen: NONE USED, Dose [Inhibitor]: 687 MG/KG DIET DAILY FOR 54 WK (STUDY DURATION: 54 WK), Species: RAT, Strain/Sex: ACI/SEGHAPBR/MALE, Target Tissue: Type of Lesion: SKIN: TUMOR): 12/45 (27%), 5/44 (11%), 59%, not significant
tumour outcome (control, treated, inhibition, significance) (Carcinogen: NONE USED, Dose [Inhibitor]: 687 MG/KG DIET DAILY FOR 54 WK (STUDY DURATION: 54 WK), Species: RAT, Strain/Sex: ACI/SEGHAPBR/MALE, Target Tissue: Type of Lesion: TESTES: INTERSTITIAL CELL TUMOR): 21/45 (47%), 27/44 (61%), -30%, not significant
